Source: patent US20080021217A1, “HETEROCYCLIC INHIBITORS OF RHO KINASE” (priority 2006, published 2008)
Structures can show the parent of a compound that is named as a salt.

Columns and labels:
[1] = biological target: T1, recombinant N-terminal GST-tagged human Rho kinase 1 (ROCK1, amino acids 1-535) (Homo sapiens, UniProt Q13464); assay: In vitro Rho kinase assay (luciferase-based ATP consumption), ROCK1; type: biochemical
T1 construct: ROCK1, amino acids 1-535, Invitrogen Inc., cat. #PV-3691; GST (N); purchased Invitrogen Inc. PV-3691
Method: (§1) Rho kinase biochemical assays described below depend on firefly luciferase-based, indirect measurement of total ATP consumption by the kinase following incubation with substrate and ATP. 25 μl of Rho kinase assay buffer (20 mM Tris-HCL [pH 7.5], 1 mM MgCl2, 0.4 mM CaCl2, 0.15 mM EGTA, 0.1 mg/ml bovine serum albumin) containing 0.82 μg/ml of recombinant N-terminal GST-tagged human Rho kinase 1 (ROCK1, amino acids 1-535, Invitrogen Inc., cat. #PV-3691) or recombinant N-terminal GST-tagged human Rho kinase 2 (ROCK2, amino acids 1-552, Invitrogen Inc., cat #PV3759), 100 μg/ml S6 peptide substrate (related to amino acids 218-249 of the human 40S ribosomal protein S6, and suitable for ROCK1 or ROCK2, e.g. Upstate/Millipore Inc., cat #12-420), and 3 µM ATP are dispensed to wells of a 384 multi-well opaque plate. The plate is centrifuged for 30 seconds at approximately 200×g. 240 nl of test compound in DMSO is dispensed to each well by passive pin transfer. The lag phase of this in vitro kinase reaction permits addition of compounds soon after the reaction initiates. The reaction is allowed to incubate at 30° C. for 2 hours. The assay plates are sealed and maintained in a humidified environment. After 2 hours, 25 μl of easyLite protein kinase assay reagent (Perkin-Elmer, Inc.) is dispensed. After an additional 10 minute incubation at room temperature (about 22° C.), luminescence activity is measured on a Molecular Devices Analyst multi-mode plate reader or other suitable plate reader. Kinase inhibition results in less ATP consumption, and therefore increased luminescence signal. Negative control activity is measured with DMSO lacking any test compound. The positive control is 2-methyl-1-(4-methylisoquinolin-5-ylsulfonyl)perhydro-1,4-diazepine hydrochloride (aka H-1152P, HCl salt). Efficacy is measured as a percentage of positive control activity. […] In some cases, kinase reactions and compound testing are performed in 1536 multi-well plates under similar conditions, with assay volumes appropriately scaled. The designated NT means the cited example was not tested.

[2] = biological target: T2, recombinant N-terminal GST-tagged human Rho kinase 2 (ROCK2, amino acids 1-552) (Homo sapiens, UniProt O75116); assay: In vitro Rho kinase assay (luciferase-based ATP consumption), ROCK2; type: biochemical
T2 construct: ROCK2, amino acids 1-552, Invitrogen Inc., cat #PV3759; GST (N); purchased Invitrogen Inc. PV3759
Method: as §1

[3] = test system: lasered (hypertensive) eyes of conscious cynomolgus monkeys; assay: Acute IOP response in lasered (hypertensive) eyes of conscious cynomolgus monkeys; type: in vivo; conditions: instilled in right eyes, IOP at 1, 3 and 6 hours; for Peak % Reduction in IOP vs. Control at 0.3%: compound at 0.3%
Text: Acute IOP Response in Lasered (Hypertensive) Eyes of Conscious Cynomolgus Monkeys
Intraocular pressure (IOP) can be determined with an Alcon Pneumatonometer after light corneal anesthesia with 0.1% proparacaine. Eyes are washed with saline after each measurement. After a baseline IOP measurement, test compound is instilled in one […] aliquot to the right eyes only of nine cynomolgus monkeys. Vehicle is instilled in the right eyes of six additional animals. Subsequent IOP measurements are taken at 1, 3, and 6 hours, and peak reduction in IOP is reported below in Table 2 as percent of IOP lowering versus the control for each of the given concentrations of compound.
A more detailed description of the assay used herein may be found in May et al., “Evaluation of the Ocular Hypotensive Response of Serotonin 5-HT1A and 5-HT2 Receptor Ligands in Conscious Ocular Hypertensive Cynomolgus Monkeys,” J. of Pharmacology and Experimental Therapeutics, vol. 306(1), pp. 301-309 (2003), the disclosure of which is hereby incorporated by reference as if written herein in its entirety.

T2 sequence (O75116 1-552): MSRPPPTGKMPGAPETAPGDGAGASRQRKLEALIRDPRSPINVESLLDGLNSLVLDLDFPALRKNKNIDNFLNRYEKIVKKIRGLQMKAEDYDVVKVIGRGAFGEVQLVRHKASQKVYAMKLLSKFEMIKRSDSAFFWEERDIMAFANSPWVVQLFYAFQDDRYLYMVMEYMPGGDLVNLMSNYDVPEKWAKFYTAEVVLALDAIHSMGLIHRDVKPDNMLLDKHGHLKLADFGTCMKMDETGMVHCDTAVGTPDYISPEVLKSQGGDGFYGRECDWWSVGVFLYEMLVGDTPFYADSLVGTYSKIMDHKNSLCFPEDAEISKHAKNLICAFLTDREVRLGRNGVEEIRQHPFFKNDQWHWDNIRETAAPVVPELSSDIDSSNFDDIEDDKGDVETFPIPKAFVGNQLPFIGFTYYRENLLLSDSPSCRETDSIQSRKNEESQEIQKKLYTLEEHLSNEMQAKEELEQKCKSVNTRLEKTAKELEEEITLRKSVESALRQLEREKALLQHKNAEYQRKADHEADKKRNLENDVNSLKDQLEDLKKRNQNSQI
T1 sequence (Q13464 1-535): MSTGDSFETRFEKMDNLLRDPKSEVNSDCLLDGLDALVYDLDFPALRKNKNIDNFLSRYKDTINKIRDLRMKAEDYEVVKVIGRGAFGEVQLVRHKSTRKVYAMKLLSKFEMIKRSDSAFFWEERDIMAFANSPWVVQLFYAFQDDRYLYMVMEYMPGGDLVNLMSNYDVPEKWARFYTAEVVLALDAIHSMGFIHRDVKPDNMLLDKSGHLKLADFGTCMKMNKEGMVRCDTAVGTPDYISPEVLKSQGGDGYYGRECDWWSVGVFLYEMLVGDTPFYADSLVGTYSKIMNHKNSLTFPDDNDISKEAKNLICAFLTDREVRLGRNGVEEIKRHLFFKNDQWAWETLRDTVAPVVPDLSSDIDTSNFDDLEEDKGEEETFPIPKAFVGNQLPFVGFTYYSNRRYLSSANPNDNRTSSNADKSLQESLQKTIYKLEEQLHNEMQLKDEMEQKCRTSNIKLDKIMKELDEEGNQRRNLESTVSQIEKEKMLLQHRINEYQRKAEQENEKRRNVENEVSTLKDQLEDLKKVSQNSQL

IC50 [1]	IC50 [2]	SMILES	Peak % Reduction in IOP vs. Control at 0.3% [3]	Peak % Reduction in IOP vs. Control at 1.0% ([3]; compound at 1.0%)
< 5 µM	< 5 µM	CC(=O)Oc1ccc(C(=O)NCc2nc(-c3ccncc3)n[nH]2)c(O)c1 [Example 36, 3-Hydroxy-4-((3-(pyridin-4-yl)-1H-1,2,4-triazol-5-yl)methylcarbamoyl)phenyl acetate]	8.4%	–
< 5 µM	< 5 µM	CC(C)C(=O)Oc1ccc(C(=O)NCc2nc(-c3ccncc3)n[nH]2)c(O)c1 [Example 35, 3-Hydroxy-4-((3-(pyridin-4-yl)-1H-1,2,4-triazol-5-yl)methylcarbamoyl)phenyl isobutyrate]	8.6%	–
< 5 µM	< 5 µM	COc1cccc(O)c1C(=O)NCc1nc(-c2ccncc2)n[nH]1 [Example 23, 2-hydroxy-6-methoxy-N-((3-(pyridin-4-yl)-1H-1,2,4-triazol-5-yl)methyl)benzamide]	–	–
< 5 µM	< 5 µM	O=C(NCc1nc(-c2ccncc2)n[nH]1)c1ccsc1 [Example 17, N-((3-(pyridin-4-yl)-1H-1,2,4-triazol-5-yl)methyl)thiophene-3-carboxamide]	–	–
> 5 µM	> 5 µM	c1ccc(COc2ccc(CNCc3nc(-c4ccncc4)n[nH]3)cc2)cc1 [Example 56, N-(4-(Benzyloxy)benzyl)-1-(3-(pyridin-4-yl)-1H-1,2,4-triazol-5-yl)methanamine]	–	–
> 5 µM	> 5 µM	c1ccc2c(NCc3nc(-c4ccncc4)n[nH]3)ncnc2c1 [Example 53, N-((3-(Pyridin-4-yl)-1H-1,2,4-triazol-5-yl)methyl)quinazolin-4-amine]	–	–
> 5 µM	< 5 µM	O=C(O)c1ccc(C(=O)NCc2nc(-c3ccncc3)n[nH]2)cc1 [Example 31, 4-((3-(Pyridin-4-yl)-1H-1,2,4-triazol-5-yl)methylcarbamoyl)benzoic acid]	–	–
< 5 µM	< 5 µM	Cc1cc(C(=O)NCc2nc(-c3ccncc3)n[nH]2)ccc1O [Example 45, 4-Hydroxy-3-methyl-N-((3-(pyridin-4-yl)-1H-1,2,4-triazol-5-yl)methyl)benzamide]	–	–
> 5 µM	> 5 µM	c1ccc2c(NCc3nc(-c4ccncc4)n[nH]3)n[nH]c2c1 [Example 59, N-((3-(Pyridin-4-yl)-1H-1,2,4-triazol-5-yl)methyl)-1H-indazol-3-amine]	–	–
< 5 µM	< 5 µM	O=C(NCc1nc(-c2ccncc2)n[nH]1)c1cccc2cc[nH]c12 [Example 42, N-((3-(Pyridin-4-yl)-1H-1,2,4-triazol-5-yl)methyl)-1H-indole-7-carboxamide]	–	–
> 5 µM	> 5 µM	CC(C)(C)C(=O)Oc1ccc(C(=O)NCc2nc(-c3ccncc3)n[nH]2)cc1 [Example 38, 4-((3-(Pyridin-4-yl)-1H-1,2,4-triazol-5-yl)methylcarbamoyl)phenyl pivalate]	–	–
> 5 µM	> 5 µM	O=S(=O)(NCc1nc(-c2ccncc2)n[nH]1)c1ccc(O)cc1 [Example 55, 4-Hydroxy-N-((3-(pyridin-4-yl)-1H-1,2,4-triazol-5-yl)methyl)benzenesulfonamide]	–	–

More lines, now with the values behind:

SMILES	IC50 [1]	IC50 [2]	Peak % Reduction in IOP vs. Control at 0.3% [3]	Peak % Reduction in IOP vs. Control at 1.0% ([3]; compound at 1.0%)
Cc1cccc(C(=O)NCc2nc(-c3ccncc3)c[nH]2)c1O [Example 7, 2-hydroxy-3-methyl-N-((4-(pyridin-4-yl)-1H-imidazol-2-yl)methyl)benzamide]	< 5 µM	< 5 µM	11.0%	–
O=C(NCc1nc(-c2ccncc2)c[nH]1)c1ccc(O)cc1O [Example 6, 2,4-dihydroxy-N-((4-(pyridin-4-yl)-1H-imidazol-2-yl)methyl)benzamide]	< 5 µM	< 5 µM	5.8%	–
CS(=O)(=O)Nc1cccc(C(=O)NCc2nc(-c3ccncc3)n[nH]2)c1 [Example 21, 3-(methylsulfonamido)-N-((3-(pyridin-4-yl)-1H-1,2,4-triazol-5-yl)methyl)benzamide]	> 5 µM	> 5 µM	–	–
O=C(c1cccs1)N1CCCC1c1nc(-c2ccncc2)n[nH]1 (centres unmarked) [Example 67, (2-(3-(pyridin-4-yl)-1H-1,2,4-triazol-5-yl)pyrrolidin-1-yl) (thiophen-2-yl)methanone]	> 5 µM	> 5 µM	–	–
Cc1ccc(C(=O)NCc2nc(-c3ccncc3)n[nH]2)c(O)c1 [Example 27, 2-hydroxy-4-methyl-N-((3-(pyridin-4-yl)-1H-1,2,4-triazol-5-yl)methyl) benzamide]	< 5 µM	< 5 µM	–	–
COc1cccc(C(=O)NCc2nc(-c3ccncc3)no2)c1 [Example 3, 3-methoxy-N-((3-(pyridin-4-yl)-1,2,4-oxadiazol-5-yl)methyl)benzamide]	> 5 µM	> 5 µM	–	–
NC(=O)c1cc(-c2ccncc2)n[nH]1 [Example 11, 3-(pyridin-4-yl)-1H-pyrazole-5-carboxamide]	> 5 µM	> 5 µM	–	–
O=C(NCc1nc(-c2ccncc2)n[nH]1)c1ccc(O)cc1O [Ex. 15 HCl, 2,4-dihydroxy-N-((3-(pyridin-4-yl)-1H-1,2,4-triazol-5-yl)methyl)benzamide]	–	–	–	8.8%
Cc1cccc(C(=O)NCc2nc(-c3c[nH]c4ncccc34)n[nH]2)c1O [Example 71, N-((3-(1H-pyrrolo[2,3-b]pyridin-3-yl)-1H-1,2,4-triazol-5-yl)methyl)-2-hydroxy-3-methylbenzamide]	< 5 µM	> 5 µM	–	–
CS(=O)(=O)Nc1cccc(C(=O)NCc2nc(-c3c[nH]c4ncccc34)cs2)c1 [Example 73, N-((4-(1H-pyrrolo[2,3-b]pyridin-3-yl)thiazol-2-yl)methyl)-3-(methylsulfonamido)benzamide]	< 5 µM	< 5 µM	–	–
Cc1ccsc1C(=O)NCc1nc(-c2ccncc2)n[nH]1 [Example 47, 3-Methyl-N-((3-(pyridin-4-yl)-1H-1,2,4-triazol-5-yl)methyl)thiophene-2-carboxamide]	< 5 µM	< 5 µM	–	–
CC(C)(C)C(=O)Oc1ccc(C(=O)NCc2nc(-c3ccncc3)n[nH]2)c(OC(=O)C(C)(C)C)c1 [Example 37, 4-((3-(Pyridin-4-yl)-1H-1,2,4-triazol-5-yl)methylcarbamoyl)-1,3-phenylene bis(2,2-dimethylpropanoate)]	> 5 µM	> 5 µM	–	–
Cc1cccc(C(=O)NCc2cc(-c3ccncc3)n[nH]2)c1O [Example 10, 2-hydroxy-3-methyl-N-((3-(pyridin-4-yl)-1H-pyrazol-5-yl)methyl)benzamide]	< 5 µM	< 5 µM	–	–
COc1cccc(C(=O)NCc2nc(-c3c[nH]c4ncccc34)cs2)c1 [Example 74, N-((4-(1H-pyrrolo[2,3-b]pyridin-3-yl)thiazol-2-yl)methyl)-3-methoxybenzamide]	< 5 µM	< 5 µM	–	–
O=C(NCc1ncc(-c2ccncc2)s1)c1cccs1 [Example 1, N-((5-(pyridin-4-yl)thiazol-2-yl)methyl)thiophene-2-carboxamide]	> 5 µM	> 5 µM	–	–
CC(C)(C)OC(=O)NCCCC(NC(=O)c1ccc(O)cc1O)c1nc(-c2ccncc2)n[nH]1 (centres unmarked) [Example 78, tert-Butyl 4-(2,4-dihydroxybenzamido)-4-(3-(pyridin-4-yl)-1H-1,2,4-triazol-5-yl)butylcarbamate]	< 5 µM	< 5 µM	–	–
